Data published in patent publication US10584361B2, “Algae having intracellular lipid particles and high lipid content” (THE UNIVERSITY OF AKRON, priority 2012, dated 2020).
Where two headings read alike, the source gives them in different places.

Legend:
algae [1] = conditions: 0.5 g/L sodium acetate, within 6 hours, increased from 40%; pH 5; then decreased
Protocol: For the dry weight analysis, algal cells were collected by centrifuging at 300 g for 10 min. After washing with deionized water once, the precipitant of the sample was transferred to pre-weighed aluminum plates and dried to a constant weight in an oven at 70 degrees C.
For the lipid analysis, the algal cells were collected at 300 g for 10 min. Then the lipid content of the precipitant from the sample was analyzed with the same lipid extraction procedure, which is modified from the Folch method. The specific procedure was: • i. Add 8 mL of chloroform and methanol mixture (2:1, v/v) to the sample • ii. Add 0.1 mL of HCl (5 M) to the sample • iii. Gradually add deionized water to the sample until a second phase appears • iv. Vortex for 3 min at full power (Vortex-Genie 2) • v. Rotate 20 min at 40% output (Glas-Col) • vi. Centrifuge at 3620 g for 5 min • vii. Collect the lower chloroform phase into a pre-weighed drying vessel • viii. Add 5 mL of chloroform and methanol mixture (2:1, v/v) to the sample and repeat steps iv, v, vi and vii • ix. Air dry the vessel to a constant weight and measure the weight.
Algae were first cultured and then collected by centrifuge. After washing with deionized water once, algae were re-suspended into salts solution (Table 1). […] During the batch studies, the pH of all systems was maintained at 5 with 0.05 mol/L NaOH and 0.05 mol/L HCl. […]

algae [2] = assay: Lipid enhancement with glycerol (algae re-suspended in salts solution); type: cell-based; conditions: 0.5, 1 and 5 g/L glycerol (all systems), within 24 h; pH 5; then decreased slightly
Protocol: The specific procedure was: • i. […] Rotate 20 min at 40% output (Glas-Col) • vi. Centrifuge at 3620 g for 5 min • vii.
Algae were first cultured and then collected by centrifuge.
The thin layer chromatography analysis was performed the same as in Experiment 2.

CC(=O)[O-].[Na+] [sodium acetate]
lipid content (algae [1]): 65 % of the dry weight

OCC(O)CO [glycerol]
lipid content (algae [2]): about 40 % of the dry weight
